From patent publication US9446026B2, “Ocular formulations for drug-delivery to the posterior segment of the eye” (PanOptica, Inc., priority 2013, dated 2016)

Experiments:
[1] = Ocular fluid and tissue concentrations, 0.4% Compound-I cyclodextrin solutions (Example 7, 24-day study); format: in vivo, Dutch-Belted rabbits; details: Dutch-Belted, rabbit, cornea, topical, 0.4 % (4 mg/mL)
Method: The ocular solution of Compound-I comprising cyclodextrin was prepared and tested in different groups of animals.

KDR (VEGFR-2) = KDR (VEGFR-2) (Homo sapiens (Human), UniProt P35968); assay: In vitro inhibition of tyrosine kinases; format: biochemical; details: 300 nM (170.67 ng/mL)
[2] = Ocular tissue concentrations, 0.3% Compound-I ophthalmic gel drop twice daily (toxicology study); format: in vivo, Dutch-Belted rabbits
[3] = 5-day PK with topical ocular Compound-I in cyclodextrin-based solutions (Example 6); format: in vivo; details: HPβCD solutions, Dutch-Belted rabbits, q.d.; 24 hr after first daily dose on day 4 (Groups 5b, 6b); LLOQ 0.0218 μM
Method: All doses were administered with ±1 hour of the scheduled dose time, except on day 1 for Groups 1, 4, and 10. The first dose on day 1 was administered at 12:00 PM, and the second dose (for Groups 1 and 10) was administered approximately 4 hours after. This was due to delayed arrival of formulations. All other dosing for these groups was as scheduled. On day 1, Groups 4-8, and 11-12 received one dose (q.d.) for four (4) days. On days 1 through 4, Groups 1-3, and 9-10 received b.i.d. dosing approximately 8 hours apart for four (4) days.
Ocular sampling occurred one hour following the first daily dose on day 5 for all groups, except Groups 5b and 6b, where ocular sampling occurred 24 hours after the first daily dose on day 4.
Blood samples for plasma collection were obtained just prior to scheduled euthanasia for all animals. […] Cornea, central retina, and central choroid samples from groups 1-12 were assayed. Aqueous humor, peripheral retina, and peripheral choroid samples were not assayed.

[4] = 1- to 5-day PK with topical ocular Compound-I formulations (Example 5); details: Dutch Belted, rabbit, aqueous humor, Average Concentration of Compound-I, Dutch Belted rabbits, topical ocular q.d. or b.i.d., 24 hr post-dose, Group per row, LLOQ 0.000903 μM
Method: All doses were administered within ±1 hour of the scheduled dose time. On day 1, Groups 1, 2, 4-6, 8, 10, 11, 13, 15, and 17 received one dose (q.d.) for either one (1) or four (4) days. […] Animals in Groups 18 and 19 received b.i.d dosing of vehicle only formulations for five (5) consecutive days.
Ocular sampling occurred for Group 1 at 0.5, 1, 2, 4, 8, or 24 hours post-dose relative to the day 1 dose. Ocular sampling occurred for Groups 2 and 6 at 1, 8, and 24 hours post-dose relative to the day 5 morning dose. Ocular sampling for Groups 3, 7, 8, 11, and 13 occurred at 1 and 24 hours post-dose relative to the day 5 morning dose. Ocular sampling for Groups 4, 9, 10, 12, 14, 15, 16, and 17 occurred at 1 hour post-dose relative to the day 5 morning dose. Group 5 ocular sampling occurred at 0.5, 1, 2, 4, 8, and 24 hours post-dose relative to the day 1 dose. Animals in Groups 18 and 19 were followed only by clinical observations for five (5) days.
Aqueous humor, cornea, central and peripheral retina, and central and peripheral choroid samples were collected. Aqueous humor, cornea, central retina, and central choroid samples were then assayed. Peripheral retina and peripheral choroid samples were assayed only for Groups 1-8, 12, 14, and 16 per study protocol.
Rabbit aqueous humor, cornea, central and peripheral retina, and central and peripheral choroid samples were analyzed.

FGFR-4 = FGFR-4 (Homo sapiens (Human), UniProt P22455); assay: In vitro inhibition of tyrosine kinases; format: biochemical
[5] = PK with topical ocular Compound-I in sodium phosphate-based Gel Drop; format: in vivo; details: Dutch-belted rabbits
Text: The Gel Drop of Compound-I was applied to eyes of Dutch-belted rabbits.
The Gel Drop formulations (listed in Table 6) differed in several aspects, such as API concentration, sodium phosphate concentration, presence or absence of tonicity (glycerin) or preservative (benzalkoniumchloride/BAK) agents, solubilizing surfactants (polysorbate 80, tyloxapol, and/or poloxamer), and pH.

[6] = Ocular toxicology: clinical ophthalmic and microscopic examinations; format: in vivo, Dutch-Belted rabbits
Text: Retinal function was normal in all test article and vehicle treated groups during full-field electroretinograms performed in rabbits.

[7] = Solubility of Compound-I in cyclodextrin ophthalmic solution; format: physicochemical; details: HP-β-CD at ≥1:6 molar ratio or SBE-β-CD at ≥1:2 ratio
[8] = Ocular tissue concentrations, 0.3% Compound-I Tris-based suspension twice daily 30 days; format: in vivo, Dutch-Belted rabbits; details: Dutch-Belted, rabbit, topical
human tumor xenographs = assay: Human tumor xenographs in athymic mice; format: in vivo; details: systemic administration
[9] = parameters: species or system Dutch-belted rabbits; details: rabbit, in vivo
[10] = 0.3% Ophthalmic Gel Drop, Twice Daily 29 days
[11] = 0.3% ophthalmic gel drop with and without benzylalkonium chloride, twice daily, Dutch-Belted rabbits

FGFR-4, sequence (P22455 22-802): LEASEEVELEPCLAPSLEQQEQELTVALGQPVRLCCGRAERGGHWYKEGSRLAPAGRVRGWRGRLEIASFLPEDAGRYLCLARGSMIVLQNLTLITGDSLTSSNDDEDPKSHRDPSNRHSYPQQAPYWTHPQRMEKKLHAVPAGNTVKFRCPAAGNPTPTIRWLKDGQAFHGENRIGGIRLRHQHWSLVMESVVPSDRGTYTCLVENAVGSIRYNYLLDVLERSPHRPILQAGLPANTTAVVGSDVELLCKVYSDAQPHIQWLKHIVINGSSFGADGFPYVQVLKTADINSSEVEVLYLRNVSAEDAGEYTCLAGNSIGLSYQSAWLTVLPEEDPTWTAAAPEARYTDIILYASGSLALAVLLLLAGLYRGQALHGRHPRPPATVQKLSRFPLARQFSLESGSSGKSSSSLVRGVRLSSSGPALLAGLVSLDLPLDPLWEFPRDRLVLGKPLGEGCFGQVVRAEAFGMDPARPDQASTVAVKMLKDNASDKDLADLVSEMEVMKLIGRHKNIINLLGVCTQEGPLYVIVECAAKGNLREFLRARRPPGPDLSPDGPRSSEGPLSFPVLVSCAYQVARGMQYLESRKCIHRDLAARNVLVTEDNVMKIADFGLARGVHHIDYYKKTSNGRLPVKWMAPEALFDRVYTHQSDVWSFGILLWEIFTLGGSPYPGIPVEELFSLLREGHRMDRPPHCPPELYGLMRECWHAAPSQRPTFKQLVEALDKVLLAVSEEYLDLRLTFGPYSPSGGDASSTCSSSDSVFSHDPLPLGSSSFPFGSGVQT
KDR (VEGFR-2), sequence (P35968 20-1356): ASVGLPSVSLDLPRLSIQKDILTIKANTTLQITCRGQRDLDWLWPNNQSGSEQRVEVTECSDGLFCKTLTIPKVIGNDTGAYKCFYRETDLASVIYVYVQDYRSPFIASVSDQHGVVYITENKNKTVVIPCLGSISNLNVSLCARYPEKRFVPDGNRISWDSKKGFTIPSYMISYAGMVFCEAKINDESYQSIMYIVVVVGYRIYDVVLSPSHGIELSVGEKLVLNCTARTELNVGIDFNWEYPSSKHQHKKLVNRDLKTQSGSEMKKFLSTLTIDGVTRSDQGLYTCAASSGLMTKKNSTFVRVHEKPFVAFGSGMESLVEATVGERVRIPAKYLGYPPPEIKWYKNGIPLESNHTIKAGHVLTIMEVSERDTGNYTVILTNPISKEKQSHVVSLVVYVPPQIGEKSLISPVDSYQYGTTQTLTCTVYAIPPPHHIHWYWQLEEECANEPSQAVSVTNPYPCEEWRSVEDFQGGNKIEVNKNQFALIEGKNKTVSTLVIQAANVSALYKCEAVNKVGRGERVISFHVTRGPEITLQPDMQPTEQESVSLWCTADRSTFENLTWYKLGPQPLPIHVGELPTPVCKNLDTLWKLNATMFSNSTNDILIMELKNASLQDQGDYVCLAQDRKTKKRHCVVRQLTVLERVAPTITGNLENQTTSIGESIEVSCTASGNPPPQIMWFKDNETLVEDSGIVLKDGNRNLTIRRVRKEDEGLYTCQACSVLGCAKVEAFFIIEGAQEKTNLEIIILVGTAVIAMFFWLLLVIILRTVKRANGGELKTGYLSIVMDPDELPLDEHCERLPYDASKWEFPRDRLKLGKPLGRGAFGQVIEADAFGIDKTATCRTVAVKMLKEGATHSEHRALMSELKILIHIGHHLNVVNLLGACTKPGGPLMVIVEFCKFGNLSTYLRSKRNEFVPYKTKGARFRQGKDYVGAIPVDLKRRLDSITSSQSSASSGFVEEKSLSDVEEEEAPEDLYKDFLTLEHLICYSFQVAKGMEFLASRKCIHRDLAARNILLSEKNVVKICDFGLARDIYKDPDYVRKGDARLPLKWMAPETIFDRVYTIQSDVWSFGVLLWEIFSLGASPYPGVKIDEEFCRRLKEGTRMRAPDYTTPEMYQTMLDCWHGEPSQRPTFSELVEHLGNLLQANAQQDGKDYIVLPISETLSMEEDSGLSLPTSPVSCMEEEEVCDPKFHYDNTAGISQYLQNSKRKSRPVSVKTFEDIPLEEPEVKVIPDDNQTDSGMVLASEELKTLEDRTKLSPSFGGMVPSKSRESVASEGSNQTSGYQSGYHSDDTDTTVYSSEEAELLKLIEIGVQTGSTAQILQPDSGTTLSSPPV

Cl.NC(=O)c1c(OCc2c(F)cc(Br)cc2F)nsc1NC(=O)NCCCCN1CCCC1 [Compound-I, 3-[(4-bromo-2,6-difluorophenyl)methoxy]-5-[[[[4-(1-pyrrolidinyl)butyl]amino]carbonyl]amino]-4-isothiazolecarboxamide hydrochloride]
concentration at 1 h ([1]; 0.4% Ophthalmic Solution (KLEPTOSE HP), Twice Daily 24 days, read-out: Cornea [Compound I]): 8050 nM | concentration at 1 h ([1]; 0.4% Ophthalmic Solution (KLEPTOSE HPB), Twice Daily 24 days, read-out: Cornea [Compound I]): 12300 nM | concentration at 1 h ([1]; 30 μL/eye, Average concentration of Compound-I, Cornea, Group 8: 0.4% Compound-I in 8.41% KLEPTOSE HPB, 0.142% phosphate, 30 μL/eye, 2 doses per day): 12300 nM | concentration at 1 h ([1]; 30 μL/eye, Average concentration of Compound-I, Cornea, Group 9: 0.4% Compound-I in […] KLEPTOSE HPB, 0.142% phosphate, 30 μL/eye, 2 doses per day): 8050 nM | concentration at 1 h ([1]; 30 μL/eye, Average concentration of Compound-I, Cornea, Group 10: 0.4% Compound-I in 4.88% CAPTISOL, 0.142% phosphate, 30 μL/eye, 2 doses per day): 6490 nM | concentration at 1 h ([1]; 30 μL/eye, Average concentration of Compound-I, Cornea, Group 11: 0.4% Compound-I in 4.88% CAPTISOL, […] phosphate, 30 μL/eye, 2 doses per day): 30000 nM | Mean % Inhibition at 300 nM Compound-I, KDR (VEGFR-2) (KDR (VEGFR-2)): completely inhibited | Central Choroid [Compound I] [2, 10]: 0.340 µM | Cornea [Compound I] [2, 10]: 236.00 µM | Mean ocular tissue concentration, aqueous humor [2, 11]: 0.0197 to 0.0395 µM | Mean ocular tissue concentration, peripheral choroid [2, 11]: 2.79 to 4.10 µM | Mean ocular tissue concentration, peripheral retina [2, 11]: 0.150 to 0.309 µM | Average Concentration, Central Retina [3]: <LLOQ | concentration at 24 h [4]: 5.18 nM | IC50, FGFR-4 (FGFR-4; 10-point titration curve): (284.45) ng/mL | IC50 (FGFR-4; 10-point titration curve (257 nM-5000 nM)): 500 nM | Delivery of Compound-I to posterior segment tissues [5]: dose-dependent and dose-frequency dependent | Microscopic evaluation of eyes, Tris-based suspension ([6]; 0.3% w/v twice daily for 30 days): considered normal | Findings attributed to test-article after 30 days of 0.6% cyclodextrin-based solution ([6]; Dutch-belted rabbits, topical ocular): no untoward findings | Tolerability of HP-β-CD cyclodextrin-based solutions, 30 days ([6]; rabbit, in vivo): well tolerated | Tolerability of Tris-based suspension formulations ([6]; rabbit, in vivo): well tolerated | Tolerability of cyclodextrin-based solutions, 24 days ([6]; rabbit, in vivo): well-tolerated | Retinal function, full-field electroretinograms ([6]; rabbits, all test article treated groups): normal | Compound-I dose strengths solubilised by cyclodextrin [7]: 0.1-1.0% | concentration at 1 h ([8]; aqueous humor, 0.3% Tris-based suspensions with and without benzylalkonium chloride, twice daily, 1 hour after first daily dose on day 30, read-out: Mean ocular tissue concentration, aqueous humor): 1.27 to 1.45 nM | concentration at 1 h ([8]; central choroid, 0.3 % w/v, 0.3% Tris Suspension, Twice Daily 30 days, read-out: Central Choroid [Compound I]): 319 nM | concentration at 1 h ([8]; central choroid, 0.3% Tris-based suspensions with and without benzylalkonium chloride, twice daily, 1 hour after first daily dose on day 30, read-out: Mean ocular tissue concentration, central choroid): 303 to 319 nM | concentration at 1 h ([8]; central retina, 0.3% Tris-based suspensions with and without benzylalkonium chloride, twice daily, 1 hour after first daily dose on day 30, read-out: Mean ocular tissue concentration, central retina): 49.5 to 59.2 nM | concentration at 1 h ([8]; cornea, 0.3 % w/v, 0.3% Tris Suspension, Twice Daily 30 days, read-out: Cornea [Compound I]): 2690 nM | concentration at 1 h ([8]; cornea, 0.3% Tris-based suspensions with and without benzylalkonium chloride, twice daily, 1 hour after first daily dose on day 30, read-out: Mean ocular tissue concentration, cornea): 2690 to 3100 nM | concentration at 1 h ([8]; peripheral choroid, 0.3% Tris-based suspensions with and without benzylalkonium chloride, twice daily, 1 hour after first daily dose on day 30, read-out: Mean ocular tissue concentration, peripheral choroid): 781 to 1210 nM | concentration at 1 h ([8]; peripheral retina, 0.3% Tris-based suspensions with and without benzylalkonium chloride, twice daily, 1 hour after first daily dose on day 30, read-out: Mean ocular tissue concentration, peripheral retina): 81.9 to 86.8 nM | Inhibition of growth of human tumor xenographs (human tumor xenographs): shown to inhibit | Reduction of corneal exposure with suspension-based and cyclodextrin formulations ([9]; Dutch-belted): 10-100 × | Corneal concentrations with Gel Drop compared to Tris-based suspensions [9]: fifty-fold to hundred-fold higher | Corneal concentrations with Gel Drop compared to cyclodextrin based solution [9]: five-fold to fifteen-fold higher
